Experimental data published in ChEMBL document CHEMBL1800071, “Switching reversibility to irreversibility in glycogen synthase kinase 3 inhibitors: clues for specific design of new compounds” (J Med Chem, 2011).
Active and inactive are the calls of the source. The rule behind the calls is not given here.

Legend:
[1] = target: T1, Glycogen synthase kinase-3 beta (Homo sapiens, UniProt P49841); test: Inhibition of GSK3-beta using GS1 as substrate and [gamma-32P]ATP after 20 mins by radiometric assay
Target sequence in this assay (P49841 whole entry): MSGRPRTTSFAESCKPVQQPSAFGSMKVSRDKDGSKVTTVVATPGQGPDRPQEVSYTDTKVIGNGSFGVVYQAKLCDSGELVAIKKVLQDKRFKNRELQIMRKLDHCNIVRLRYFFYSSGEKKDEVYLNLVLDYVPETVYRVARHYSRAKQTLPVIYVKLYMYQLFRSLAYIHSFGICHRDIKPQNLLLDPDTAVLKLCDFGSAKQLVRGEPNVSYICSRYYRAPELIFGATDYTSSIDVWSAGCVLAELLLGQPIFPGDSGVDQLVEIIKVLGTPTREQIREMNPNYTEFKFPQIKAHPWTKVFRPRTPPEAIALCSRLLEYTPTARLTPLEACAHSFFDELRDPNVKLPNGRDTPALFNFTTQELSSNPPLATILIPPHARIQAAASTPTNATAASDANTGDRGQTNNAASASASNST

[2] = target: T1, Glycogen synthase kinase-3 beta; test: Irreversible inhibition of human recombinant GSK3-beta using prephosphorylated polypeptide substrate preincubated with enzyme for 5 to 10 mins measured after 30 mins by Glow-type luminescence assay in presence of 1 uM ATP
Target sequence in this assay (P49841 whole entry, looked up): as the sequence (P49841 whole entry) above

[3] = target: T1, Glycogen synthase kinase-3 beta; test: Inhibition of human recombinant GSK3-beta using prephosphorylated polypeptide substrate after 30 mins by Glow-type luminescence assay in presence of 1 uM ATP
Target sequence in this assay (P49841 whole entry): as above

[4] = system: Calcium/calmodulin-dependent protein kinase type II (Rattus norvegicus); test: Inhibition of rat brain CAM kinase 2 using autocamtide as substrate and [gamma-33P] at 10 uM by scintillation counting
Rattus norvegicus [5] = species: Rattus norvegicus; test: Displacement of [3H]-CGP39653 from NMDA glutaminergic receptor in rat cerebral cortex at 10 uM; format: tissue-based
Rattus norvegicus [6] = species: Rattus norvegicus; test: Displacement of [3H]-AMPA from AMPA glutaminergic receptor in rat cerebral cortex at 10 uM; format: tissue-based
[7] = target: Insulin receptor (Homo sapiens) (UniProt P06213); test: Inhibition of human recombinant IRK using poly GT as substrate and [gamma-33P]ATP at 10 uM by scintillation counting
[8] = target: D(3) dopamine receptor (Homo sapiens) (UniProt P35462); test: Displacement of [3H]spiperone form human recombinant D3 receptor expressed in CHO cells at 10 uM; format: cell-based
Sequence of D(3) dopamine receptor (Homo sapiens) (P35462 whole entry): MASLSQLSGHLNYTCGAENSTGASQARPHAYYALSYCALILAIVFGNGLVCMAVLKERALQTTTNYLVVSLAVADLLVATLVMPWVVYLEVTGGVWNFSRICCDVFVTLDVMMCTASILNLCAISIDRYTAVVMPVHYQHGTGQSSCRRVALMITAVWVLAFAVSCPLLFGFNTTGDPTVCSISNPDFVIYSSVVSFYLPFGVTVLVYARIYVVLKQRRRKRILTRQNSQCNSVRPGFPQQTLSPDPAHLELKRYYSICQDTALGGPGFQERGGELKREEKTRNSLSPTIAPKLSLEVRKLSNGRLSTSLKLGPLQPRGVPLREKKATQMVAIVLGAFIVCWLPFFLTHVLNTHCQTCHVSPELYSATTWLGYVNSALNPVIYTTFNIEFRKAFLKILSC

Bos taurus = species: Bos taurus; test: Inhibition of bovine thymus protein kinase p56 using poly GT as substrate and [gamma-33P]ATP at 10 uM by scintillation counting
[9] = Inhibition of protein kinase A at 100 uM
[10] = target: Epidermal growth factor receptor (Homo sapiens) (UniProt P00533); test: Inhibition of EGFR kinase in human A431 cells using poly GAT as substrate and [gamma-33P]ATP at 10 uM by scintillation counting; format: cell-based; details: A-431
Sequence of Epidermal growth factor receptor (Homo sapiens) (P00533 whole entry): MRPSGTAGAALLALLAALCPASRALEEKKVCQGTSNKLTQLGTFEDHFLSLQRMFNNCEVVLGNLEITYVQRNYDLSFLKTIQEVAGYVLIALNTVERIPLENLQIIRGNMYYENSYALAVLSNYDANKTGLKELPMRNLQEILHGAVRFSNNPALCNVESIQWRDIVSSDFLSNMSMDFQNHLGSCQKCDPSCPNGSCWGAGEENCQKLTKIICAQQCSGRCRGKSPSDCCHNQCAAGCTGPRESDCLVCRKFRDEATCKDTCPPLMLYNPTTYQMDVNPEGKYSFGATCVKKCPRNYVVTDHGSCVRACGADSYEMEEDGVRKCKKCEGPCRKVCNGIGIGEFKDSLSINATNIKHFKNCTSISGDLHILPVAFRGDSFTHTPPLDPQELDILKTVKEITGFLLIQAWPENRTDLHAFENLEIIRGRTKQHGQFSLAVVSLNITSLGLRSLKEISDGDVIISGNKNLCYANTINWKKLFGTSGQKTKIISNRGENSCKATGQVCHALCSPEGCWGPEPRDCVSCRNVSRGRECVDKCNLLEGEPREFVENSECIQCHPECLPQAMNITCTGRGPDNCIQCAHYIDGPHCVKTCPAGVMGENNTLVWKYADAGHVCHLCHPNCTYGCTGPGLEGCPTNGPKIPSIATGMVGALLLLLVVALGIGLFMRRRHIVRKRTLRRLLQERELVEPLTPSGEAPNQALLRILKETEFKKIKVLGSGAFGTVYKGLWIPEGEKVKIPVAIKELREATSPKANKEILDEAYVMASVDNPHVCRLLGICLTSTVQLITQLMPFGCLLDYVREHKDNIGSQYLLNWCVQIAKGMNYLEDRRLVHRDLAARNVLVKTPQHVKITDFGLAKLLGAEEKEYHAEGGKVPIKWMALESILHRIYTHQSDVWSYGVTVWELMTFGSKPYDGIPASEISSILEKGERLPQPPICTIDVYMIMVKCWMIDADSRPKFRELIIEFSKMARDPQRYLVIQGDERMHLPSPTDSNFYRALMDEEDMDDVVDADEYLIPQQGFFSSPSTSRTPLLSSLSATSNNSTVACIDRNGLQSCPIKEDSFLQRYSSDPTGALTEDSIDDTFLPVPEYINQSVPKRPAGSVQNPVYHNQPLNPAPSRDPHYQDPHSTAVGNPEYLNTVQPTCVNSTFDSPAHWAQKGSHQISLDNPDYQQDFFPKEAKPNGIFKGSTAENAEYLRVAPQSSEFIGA

Rattus norvegicus [11] = species: Rattus norvegicus; test: Displacement of [3H]serotonine from 5-HT receptor in rat cerebral cortex at 10 uM; format: tissue-based
[12] = target: D(2) dopamine receptor (Homo sapiens) (UniProt P14416); test: Displacement of [3H]spiperone form human recombinant D2 receptor expressed in CHO cells at 10 uM; format: cell-based
Sequence of D(2) dopamine receptor (Homo sapiens) (P14416 whole entry): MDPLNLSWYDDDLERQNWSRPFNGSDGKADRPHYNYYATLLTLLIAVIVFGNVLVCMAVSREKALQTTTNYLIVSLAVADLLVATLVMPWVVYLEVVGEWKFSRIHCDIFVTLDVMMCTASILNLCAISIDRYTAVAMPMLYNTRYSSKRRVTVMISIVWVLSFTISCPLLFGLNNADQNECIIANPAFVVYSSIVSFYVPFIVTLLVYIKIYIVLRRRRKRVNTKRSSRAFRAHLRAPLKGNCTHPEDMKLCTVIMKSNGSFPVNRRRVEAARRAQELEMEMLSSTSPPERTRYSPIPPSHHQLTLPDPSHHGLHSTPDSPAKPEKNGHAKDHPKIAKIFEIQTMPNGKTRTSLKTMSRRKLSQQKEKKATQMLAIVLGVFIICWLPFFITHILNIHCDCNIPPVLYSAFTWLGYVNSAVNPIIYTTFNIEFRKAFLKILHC

Rattus norvegicus [13] = species: Rattus norvegicus; test: Displacement of [125I]-alpha-bungarotoxin from alpha-BGTX-sensitive neuronal nicotinic receptor in rat cerebral cortex at 10 uM; format: tissue-based
[14] = target: Mitogen-activated protein kinase 1 (Rattus norvegicus) (UniProt P63086); test: Inhibition of rat recombinant ERK42 expressed in Escherichia coli using MBP as substrate and [gamma-33P]ATP at 10 uM by scintillation counting
Sequence of Mitogen-activated protein kinase 1 (Rattus norvegicus) (P63086 whole entry): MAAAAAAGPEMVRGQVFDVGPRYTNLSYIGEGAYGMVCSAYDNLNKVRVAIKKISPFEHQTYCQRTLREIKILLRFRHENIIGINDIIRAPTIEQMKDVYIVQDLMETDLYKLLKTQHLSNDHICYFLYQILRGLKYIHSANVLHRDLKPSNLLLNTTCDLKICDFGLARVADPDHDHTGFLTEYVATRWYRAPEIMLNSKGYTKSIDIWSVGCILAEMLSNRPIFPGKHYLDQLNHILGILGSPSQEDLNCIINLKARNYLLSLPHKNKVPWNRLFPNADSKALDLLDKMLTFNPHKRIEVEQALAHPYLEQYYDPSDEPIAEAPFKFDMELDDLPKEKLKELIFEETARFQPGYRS

[15] = target: Tyrosine-protein kinase ABL1 (Mus musculus) (UniProt P00520); test: Inhibition of mouse recombinant Abl expressed in Escherichia coli assessed as phosphopoly Gt formation using poly Gt as substrate at 10 uM by fluorescence polarization method
[16] = target: Proto-oncogene tyrosine-protein kinase Src (Homo sapiens) (UniProt P12931); test: Inhibition of Src kinase at 10 uM
Sequence of Proto-oncogene tyrosine-protein kinase Src (Homo sapiens) (P12931 2-536 limits assumed): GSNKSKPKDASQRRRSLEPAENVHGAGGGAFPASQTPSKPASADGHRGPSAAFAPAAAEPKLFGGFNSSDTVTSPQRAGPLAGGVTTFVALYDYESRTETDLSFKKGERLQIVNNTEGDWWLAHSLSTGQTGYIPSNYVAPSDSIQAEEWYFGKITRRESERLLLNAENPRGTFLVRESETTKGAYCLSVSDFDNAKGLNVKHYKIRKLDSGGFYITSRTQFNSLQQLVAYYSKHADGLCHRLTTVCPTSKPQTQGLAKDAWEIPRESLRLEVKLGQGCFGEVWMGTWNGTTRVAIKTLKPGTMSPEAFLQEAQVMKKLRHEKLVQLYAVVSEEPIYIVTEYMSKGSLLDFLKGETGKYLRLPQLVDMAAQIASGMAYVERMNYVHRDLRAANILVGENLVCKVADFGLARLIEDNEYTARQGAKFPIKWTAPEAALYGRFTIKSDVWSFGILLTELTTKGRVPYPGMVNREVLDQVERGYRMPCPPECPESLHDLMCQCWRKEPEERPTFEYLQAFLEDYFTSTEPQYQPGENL

Rattus norvegicus [17] = species: Rattus norvegicus; test: Displacement of [3H]cytisine from alpha-BGTX-insensitive neuronal nicotinic receptor in rat cerebral cortex at 10 uM; format: tissue-based
[18] = target: Adrenergic receptor alpha-2 (Rattus norvegicus) (UniProt P22086+P19328+P22909); test: Displacement of [3H]-RX821002 from adrenergic A2 receptor in rat cerebral cortex at 10 uM; format: tissue-based
[19] = target: Dual specificity mitogen-activated protein kinase kinase 1 (Oryctolagus cuniculus) (UniProt P29678); test: Inhibition of rabbit recombinant MEK1 expressed in Escherichia coli using inactivated MAP kinase as substrate and [gamma-33P]ATP at 10 uM by scintillation counting
Sequence of Dual specificity mitogen-activated protein kinase kinase 1 (Oryctolagus cuniculus) (P29678 whole entry): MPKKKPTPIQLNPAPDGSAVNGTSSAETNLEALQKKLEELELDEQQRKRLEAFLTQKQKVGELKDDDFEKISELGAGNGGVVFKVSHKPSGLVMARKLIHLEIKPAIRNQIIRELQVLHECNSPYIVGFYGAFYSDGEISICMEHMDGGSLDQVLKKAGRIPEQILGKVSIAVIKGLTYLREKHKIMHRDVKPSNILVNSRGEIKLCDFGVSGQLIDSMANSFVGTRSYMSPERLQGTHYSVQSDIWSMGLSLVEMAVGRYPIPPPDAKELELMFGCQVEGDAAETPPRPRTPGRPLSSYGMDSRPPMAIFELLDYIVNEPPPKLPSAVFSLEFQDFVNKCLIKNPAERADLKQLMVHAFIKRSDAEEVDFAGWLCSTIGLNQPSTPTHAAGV

[20] = target: Muscarinic acetylcholine receptor (Rattus norvegicus) (UniProt P08482+P08483+P08485+P08911+P10980); test: Displacement of [3H]-QNB from muscarinic receptor in rat cerebral cortex at 10 uM; format: tissue-based
[21] = target: T1, Glycogen synthase kinase-3 beta; test: Reversible inhibition of human recombinant GSK3-beta using prephosphorylated polypeptide substrate preincubated with enzyme for 5 to 10 mins measured after 30 mins by Glow-type luminescence assay in presence of 1 uM ATP
Target sequence in this assay (P49841 whole entry, looked up): as the sequence (P49841 whole entry) above

[22] = target: T1, Glycogen synthase kinase-3 beta; test: Covalent binding affinity to human recombinant GSK3-beta by MALDI-TOF analysis
Target sequence in this assay (P49841 whole entry, looked up): as the sequence (P49841 whole entry) above

[23] = Inhibition of GSK3 in granule cerebellar neurons assessed as decrease of tau phosphorylation at Ser396 at 25 uM after 16 hrs by Western blot analysis
[24] = Inhibition of GSK3 in granule cerebellar neurons assessed as […] of tau phosphorylation at 25 uM after 16 hrs by Western blot analysis

Question: Which IC50 [1] does the source give for `O=C(c1ccccn1)C(Br)Br` here?
Answer: 2.5 µM

Question: For `O=C(c1ccc(I)cc1)C(Br)Br`, which IC50 [1] is on record?
Answer: 2 µM

Question: With `O=C(CN1C(=O)c2ccccc2C1=O)c1ccc(Br)cc1` as the compound, how does the IC50 [1] read?
Answer: 100 µM

Question: With `CCSCC(=O)c1ccc(Br)cc1` as the compound, how does the IC50 [1] read?
Answer: > 10 µM

Question: Which inhibition [2] does the source give for `COc1ccc(-n2cnc3cc(C(=O)CBr)ccc32)cc1` here?
Answer: Active

Question: What about the IC50 [3] of the same compound?
Answer: 0.58 µM

Question: With `O/N=C(\CBr)c1ccc(Br)cc1` as the compound, how does the IC50 [1] read?
Answer: > 100 µM

Question: With `[O-][S+](CCl)c1ccc(Br)cc1` (stereo unspecified) as the compound, how does the IC50 [1] read?
Answer: > 100 µM

Question: For `CC(=O)OCC(=O)c1ccc(Br)cc1`, which IC50 [1] is on record?
Answer: > 100 µM

Question: Which inhibition [4] does the source give for `O=C(CCl)c1ccc(Cl)cc1` here?
Answer: 16%

Question: And the inhibition (Rattus norvegicus [5])?
Answer: 15%

Question: And the inhibition (Rattus norvegicus [6])?
Answer: < 10%

Question: And the inhibition [7]?
Answer: < 10%

Question: What about the inhibition [8] of the same compound?
Answer: < 10%

Question: And the inhibition (Bos taurus)?
Answer: < 10%

Question: And the inhibition [9]?
Answer: inactive

Question: What about the inhibition [10] of the same compound?
Answer: < 10%

Question: What about the inhibition (Rattus norvegicus [11]) of the same compound?
Answer: < 10%

Question: What about the inhibition [12] of the same compound?
Answer: < 10%

Question: And the inhibition (Rattus norvegicus [13])?
Answer: < 10%

Question: And the inhibition [14]?
Answer: < 10%

Question: What about the inhibition [15] of the same compound?
Answer: < 10%

Question: And the inhibition [16]?
Answer: 19%

Question: And the inhibition (Rattus norvegicus [17])?
Answer: < 10%

Question: What about the inhibition [18] of the same compound?
Answer: < 10%

Question: What about the inhibition [19] of the same compound?
Answer: < 10%

Question: And the inhibition [20]?
Answer: < 10%

Question: For `Nc1c(Br)cc(C(=O)C(Br)Br)cc1Br`, which IC50 [1] is on record?
Answer: 0.5 µM

Question: Which IC50 [1] does the source give for `N#Cc1cccc(C(=O)C(Br)Br)c1` here?
Answer: 1 µM

Question: Which IC50 [1] does the source give for `O=C(CO)c1ccc(Br)cc1` here?
Answer: > 100 µM

Question: Which IC50 [1] does the source give for `O=C(CBr)c1ccc(N2CCOCC2)cc1` here?
Answer: 6 µM

Question: Which IC50 [1] does the source give for `O=C(c1ccc(C(F)(F)F)cc1)C(Br)Br` here?
Answer: 5 µM

Question: For `CC(=O)C1=C(c2c[nH]c3ccccc23)C(=O)NC1=O`, which IC50 [3] is on record?
Answer: 4.47 µM

Question: And the inhibition [21]?
Answer: Active

Question: For `O=C(CSc1ccccc1)c1ccc(Br)cc1`, which IC50 [1] is on record?
Answer: > 100 µM

Question: With `CC(=O)n1cnc2c(N)ncnc21` as the compound, how does the IC50 [3] read?
Answer: > 50 µM

Question: For `O=C(CSCc1ccccc1)c1ccc(Br)cc1`, which IC50 [1] is on record?
Answer: > 10 µM

Question: Which Activity [22] does the source give for `Cn1cc(C2=C(C(=O)CBr)C(=O)NC2=O)c2ccccc21` here?
Answer: Active

Question: What about the inhibition [2] of the same compound?
Answer: Active

Question: What about the IC50 [3] of the same compound?
Answer: 0.005 µM

Question: Which IC50 [1] does the source give for `O=C(CBr)c1ccc(C(F)(F)F)cc1` here?
Answer: 5 µM

Question: With `N#Cc1ccc(C(=O)C(Br)Br)cc1` as the compound, how does the IC50 [1] read?
Answer: 1.5 µM

Question: For `NCC(=O)c1ccc(Br)cc1`, which IC50 [1] is on record?
Answer: 100 µM

Question: With `CC(=O)C1=C(c2cn(C)c3ccccc23)C(=O)NC1=O` as the compound, how does the Activity [22] read?
Answer: Active

Question: What about the IC50 [3] of the same compound?
Answer: 0.89 µM

Question: And the inhibition [21]?
Answer: Active

Question: With `Nc1ncnc2c1ncn2C(=O)CCl` as the compound, how does the IC50 [3] read?
Answer: 13.4 µM

Question: Which results are given for `O=C(CBr)c1ccc(Br)cc1`?
Answer: inhibition [4]: < 10%; inhibition (Rattus norvegicus [5]): < 10%; inhibition (Rattus norvegicus [6]): < 10%; inhibition [7]: < 10%; inhibition [8]: < 10%; inhibition (Bos taurus): 29%; inhibition [9]: inactive; inhibition [10]: 18%; inhibition (Rattus norvegicus [11]): < 10%; inhibition [12]: < 10%; inhibition (Rattus norvegicus [13]): < 10%; inhibition [14]: < 10%; inhibition [15]: < 10%; inhibition [16]: 38%; inhibition (Rattus norvegicus [17]): 16%; inhibition [18]: < 10%; inhibition [19]: < 10%; inhibition [20]: < 10%

Question: For `O=C(CBr)C1=C(c2c[nH]c3ccccc23)C(=O)NC1=O`, which inhibition [2] is on record?
Answer: Active

Question: And the IC50 [3]?
Answer: 0.047 µM

Question: For `[Cl-].[Li+]`, which inhibition [23] is on record?
Answer: Active

Question: And the inhibition [24]?
Answer: Active

Question: With `CO/N=C(\CBr)c1ccc(Br)cc1` as the compound, how does the IC50 [1] read?
Answer: 50 µM

Question: With `COc1ccc(-n2cnc3cc(C(C)=O)ccc32)cc1` as the compound, how does the IC50 [3] read?
Answer: > 10 µM
